Laboratory results published in patent publication US4450269A, “Mono-5-substituted-3-chloro-4H-1,2,6-thiadiazin-4-one antifungal agents” (FMC Corporation, priority 1980, dated 1984).

Key:
Cladosporium cucumerinum [1] = test: Spore germination test; format: cell-based; settings: CC, 48 hours
Summary of the method: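 Compound in acetone mixed into water agar at 40, 10, 2.5 and 1 ppm; plates seeded with spore suspension and incubated 48 hours at 24 °C. Percentage germinated spores counted and converted into a germination rating.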

Cladosporium cucumerinum [2] = test: Mycelial growth test; format: cell-based; settings: CC; for inhibition at 5 ppm / inhibition at 10 ppm / inhibition at 40 ppm / inhibition at 20 ppm: Cladosporium cucumerinum, read-out: Percent Fungus Growth Inhibition; for inhibition at 5 ppm / inhibition at 10 ppm / inhibition at 40 ppm: 72 h; for inhibition at 20 ppm: CC20, 72 h
Excerpt: |CC = Cladosporium cucumerinum

Pyricularia oryzae = test: whole plant or invertebrate; format: in vivo; settings: for pest or weed control at 150 ppm: Pyricularia oryzae, foliar, 24 h, read-out: Percent Disease Control, curative, rice blast, 150 ppm, 24 hours after inoculation
Erysiphe polygoni = test: whole plant or invertebrate; settings: foliar, 24 h, read-out: Percent Disease Control, curative, bean powdery mildew

| Structure (SMILES) | Spore Germination Rating (Cladosporium cucumerinum [1]; 1.0 ppm) | Spore Germination Rating (Cladosporium cucumerinum [1]; 2.5 ppm) | Spore Germination Rating (Cladosporium cucumerinum [1]; 10 ppm) | Spore Germination Rating (Cladosporium cucumerinum [1]; 40 ppm) | inhibition at 5 ppm (Cladosporium cucumerinum [2]) | inhibition at 10 ppm (Cladosporium cucumerinum [2]) | inhibition at 40 ppm (Cladosporium cucumerinum [2]; 40 ppm) | inhibition at 20 ppm (Cladosporium cucumerinum [2]) | pest or weed control at 150 ppm (Pyricularia oryzae) | pest or weed control at 150 ppm (Erysiphe polygoni) | Percent Fungus Growth Inhibition (Cladosporium cucumerinum [2]; 40 ppm, 72 hours) | Percent Disease Control, curative, rice blast (Pyricularia oryzae; 150 ppm, 24 hours after inoculation) |
| --- | --- | --- | --- | --- | --- | --- | --- | --- | --- | --- | --- | --- |
| O=c1c(Cl)nsnc1Oc1ccc(Cl)cc1Cl [Compound 17, 3-chloro-5-(2,4-dichlorophenoxy)-4H--1,2,6-thiadiazin-4-one] | 4 (80-100) | 0 (0-10) | 0 (0-10) | 0 (0-10) | 100% | 100% | 100% | 100% | 0% | 100% |  |  |
| O=c1c(Cl)nsnc1Oc1c(Cl)cccc1Cl [Compound 18, 3-chloro-5-(2,6-dichlorophenoxy)-4H--1,2,6-thiadiazin-4-one] | 4 (80-100) | 0 (0-10) | 0 (0-10) | 0 (0-10) | 83% | 100% | 100% | 100% | 0% | 100% |  |  |
| O=c1c(Cl)nsnc1Oc1cc(Cl)cc(Cl)c1 [Compound 20, 3-chloro-5-(3,5-dichlorophenoxy)-4H--1,2,6-thiadiazin-4-one] | 0 (0-10) | 0 (0-10) | 0 (0-10) | 0 (0-10) | 100% | 100% | 100% | 100% | 0% | 100% |  |  |
| Cc1cccc(Oc2nsnc(Cl)c2=O)c1 [Compound 21, 3-chloro-5-(3-methylphenoxy)-4H--1,2,6-thiadiazin-4-one] | 1 (10-40) | 0 (0-10) | 0 (0-10) | 0 (0-10) | 38% | 38% | 85% | 69% | 85% | 100% |  |  |
| Cc1ccccc1Oc1nsnc(Cl)c1=O [Compound 22, 3-chloro-5-(2-methylphenoxy)-4H--1,2,6-thiadiazin-4-one] | 0 (0-10) | 0 (0-10) | 0 (0-10) | 0 (0-10) | 31% | 46% | 92% | 69% | 0% | 100% |  |  |
| Cc1ccc(Oc2nsnc(Cl)c2=O)c(C)c1 [Compound 23, 3-chloro-5-(2,4-dimethylphenoxy)-4H--1,2,6-thiadiazin-4-one] | 4 (80-100) | 1 (10-40) | 0 (0-10) | 0 (0-10) | 27% | 38% | 100% | 81% | 0% | 0% |  |  |
| Cc1cccc(C)c1Oc1nsnc(Cl)c1=O [Compound 24, 3-chloro-5-(2,6-dimethylphenoxy)-4H--1,2,6-thiadiazin-4-one] | 0 (0-10) | 0 (0-10) | 0 (0-10) | 0 (0-10) | 46% | 65% | 100% | 100% | 95% | 100% |  |  |
| Cc1cc(C)cc(Oc2nsnc(Cl)c2=O)c1 [Compound 25, 3-chloro-5-(3,5-dimethylphenoxy)-4H--1,2,6-thiadiazin-4-one] | 0 (0-10) | 0 (0-10) | 0 (0-10) | 0 (0-10) | 27% | 50% | 100% | 77% | 0% | 100% |  |  |
| Nc1ccc(Oc2nsnc(Cl)c2=O)cc1 [Compound 26, 5-(4-aminophenoxy)-3-chloro-4H--1,2,6-thiadiazin-4-one] | 1 (10-40) | 0 (0-10) | 0 (0-10) | 0 (0-10) | 37% | 49% |  | 49% |  | 0% | 77% | 0% |
| CNC(=O)Nc1ccc(Oc2nsnc(Cl)c2=O)cc1 [Compound 28, 3-chloro-5-[4-(3-methylureido)-phenoxy]-4H--1,2,6-thiadiazin-4-one] | 2 (40-60) | 2 (40-60) | 1 (10-40) | 0 (0-10) | 14% | 26% | 60% | 26% | 0% | 50% |  |  |
| O=C(Nc1ccccc1)Nc1ccc(Oc2nsnc(Cl)c2=O)cc1 [Compound 29, 3-chloro-5-[4-(3-phenylureido)-phenoxy]-4H--1,2,6-thiadiazin-4-one] | 2 (40-60) | 2 (40-60) | 2 (40-60) | 1 (10-40) | 14% | 11% | 31% | 14% | 0% | 0% |  |  |
| O=c1c(Cl)nsnc1Oc1c(Cl)cc(Cl)cc1Cl [Compound 30, 3-chloro-5-(2,4,6-trichlorophenoxy)-4H--1,2,6-thiadiazin-4-one] | 0 (0-10) | 0 (0-10) | 0 (0-10) | 0 (0-10) | 75% | 100% | 100% | 100% | 0% | 100% |  |  |
| O=c1c(Cl)nsnc1Oc1c(Cl)c(Cl)c(Cl)c(Cl)c1Cl [Compound 31, 3-chloro-5-(pentachlorophenoxy)-4H--1,2,6-thiadiazine-4-one] | 0 (0-10) | 0 (0-10) | 0 (0-10) | 0 (0-10) | 54% | 57% | 69% | 60% | 0% | 100% |  |  |
| O=c1c(Cl)nsnc1Oc1cccc2ccccc12 [Compound 32, 3-chloro-5(1-naphthoxy)-4H-1,2,6-thiadiazin-4-one] | 0 (0-10) | 0 (0-10) | 0 (0-10) | 0 (0-10) | 35% | 46% | 100% | 69% | 0% | 90% |  |  |
| O=c1c(Cl)nsnc1Oc1ccccc1Br [Compound 34, 3-chloro-5-(2-bromophenoxy)-4H-1,2,6,-thiadiazin-4-one] | 1 (10-40) | 0 (0-10) | 0 (0-10) | 0 (0-10) | 6% | 28% | 86% | 61% | 0% | 95% |  |  |
| O=c1c(Cl)nsnc1Oc1ccc(O)cc1 [Compound 35, 3-chloro-5-(4-hydroxyphenoxy)-4H-1,2,6-thiadiazin-4-one] | 4 (80-100) | 0 (0-10) | 3 (60-80) | 0 (0-10) | 0% | 0% | 92% | 23% | 0% | 0% |  |  |
| O=C(Nc1ccccc1)Oc1ccc(Oc2nsnc(Cl)c2=O)cc1 [Compound 37, 3-chloro-5-[4-(phenylaminocarbonyloxy)phenoxy]-4H-1,2,6,-thiadiazin-4-one] | 0 (0-10) | 1 (10-40) | 0 (0-10) | 0 (0-10) | 23% | 29% | 52% | 35% | 0% | 0% |  |  |
